Experiments:
Assay type in all cases: cell-based
[1] = biological target: T1, human somatostatin receptor subtype 2 (Homo sapiens, UniProt P30874); test: Functional cAMP assay for SSTR2 agonists (HTRF) in CHO-K1 cells; details: CHO-K1 cells stably expressing human SST2, 20 min; read-out: hSST2 cAMP Avg EC50
T1 construct: expressed in transfected cells
Description: General overview: All five SSTR subtypes are Gi coupled G-protein coupled receptors (GPCRs) that lead to decreases in intracellular cyclic AMP (cAMP) when activated by an agonist. Therefore, measurement of intracellular cAMP levels can be used to assess whether compounds of the invention are agonists of SSTR subtypes (John Kelly, Troy Stevens, W. Joseph Thompson, and Roland Seifert, Current Protocols in Pharmacology, 2005, 2.2.1-2.2). One example of an intracellular cAMP assay is described below.
Functional Assay for SSTR2 Agonists
Four days prior to the assay, 2,000 Chinese hamster ovary cells (CHO-K1, ATCC #CCL-61) stably expressing the human somatostatin receptor subtype 2 are plated in each well of a 96-well tissue culture-treated plate in Ham's F12 growth media (ThermoFisher #10-080-CM) supplemented with 10% donor bovine serum (Gemini Bio-Products #100-506), 100 U/mL penicillin; 100 ug/mL streptomycin; 2 mM L-glutamine (Gemini Bio-Products #400-110) and 0.2 mg/mL hygromycin B (GoldBio #31282-04-9). The cells are cultured at 37° C., 5% CO2 and 95% humidity. cAMP is measured with HTRF dynamic cAMP assay (Cisbio, #62AM5PEJ) per manufacturer's instructions. On the day of the assay, the media is aspirated and the cells are treated with 50 μL of stimulation buffer supplemented with 10.2 mM 3-Isobutyl-1-methylxanthine (IBMX, Millipore Sigma #15879) and 1.6 μM NKH477 (Tocris #1603), plus various dilutions of SMDCs of the present invention. The cells are incubated for 20 minutes at 37° C. (the final concentration of the compounds of the invention are typically 0-10,000 nM). The cells are treated with 50 μL of lysis buffer (HRTF cAMP kit, Cisbio) and incubated at room temperature for 30 minutes with rotary shaking at 600 rpm, and then diluted with 150 μL of stimulation buffer and shaken for an additional five minutes at 300 rpm. The lysate is transferred to 384-well plates and incubated for 1-24 hours at room temperature, and cAMP accumulation is detected by d2-labeled cAMP and Anti-cAMP-Cryptate. The time-resolved fluorescent signal is read using a m1000 Pro (Tecan) or CLARIOStar (BMG Labtech) microplate reader, where the samples are excited with light at 340 nm and emission light is measured at 620 nm and 665 nm. The data is expressed as a calculation of the fluorescence ratio (665 nm/620 nm). The intracellular cAMP concentrations are calculated by regression to a standard curve and are plotted vs. the concentration of the compounds of the invention. The EC50 of the compounds are calculated using standard methods. All data manipulations are in GraphPad Prism v9 (GraphPad, San Diego, CA).

[2] = biological target: T2, SST2 (Homo sapiens, UniProt P30874); test: PathHunter CHO-K1 SST2 internalization assay; details: PathHunter CHO-K1 SST2, 90 min; read-out: Internalization EC50
T2 construct: host or cells: PathHunter CHO-K1 SST2 cells
T2 sequence (P30874 whole entry): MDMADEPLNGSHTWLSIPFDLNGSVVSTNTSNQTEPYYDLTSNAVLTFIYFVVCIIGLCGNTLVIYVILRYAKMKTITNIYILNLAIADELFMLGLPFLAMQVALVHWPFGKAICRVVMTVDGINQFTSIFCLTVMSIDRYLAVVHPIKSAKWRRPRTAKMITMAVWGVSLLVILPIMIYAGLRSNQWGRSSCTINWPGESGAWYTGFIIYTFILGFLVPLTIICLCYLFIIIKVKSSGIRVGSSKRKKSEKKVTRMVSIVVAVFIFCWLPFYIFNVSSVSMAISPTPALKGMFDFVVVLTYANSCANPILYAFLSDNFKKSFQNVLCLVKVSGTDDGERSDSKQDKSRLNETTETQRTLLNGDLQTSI
Experimental: SMDCs of the present invention were assessed in vitro using the human PathHunter CHO-K1 SST2 β-arrestin2 and PathHunter CHO-K1 SST2 Internalization Assays from DiscoverX. The CHO-K cells were seeded in 20 μLs of cell culture medium in a white-walled 384 well tissue culture-compatible plate at a density of 2500 cells/well. After a 48-hour incubation, cells were treated with 5 μLs of a 1:3 serially diluted SST2 SMDC prepared at 5× concentration with a final top compound concentration of 10 uM for 90 min at 37 C and in 5% CO2. 11 dilutions were tested as well as one treatment that was compound free. After incubation, the media containing treatments were discarded and 20 μL of a working solution of Beta-Glo from Promega Beta-Glo Assay System was added to each well. The plate was then incubated for 60 min at room temperature in the dark. Luminescence was measured using a Tecan plate reader. IC50 curves were generated using the nonlinear regression analysis (four-parameters) with GraphPad Prism 9. Results were the average of duplicates and are corrected for background.

[3] = system: NCI-H524 (ATCC) human small cell lung cancer cells; details: 2 h
Experimental: SMDCs of the present invention were assessed in an in vitro assay evaluating the inhibition of cell proliferation. NCI-H524 (ATCC) human small cell lung cancer cells were plated in 96-well V-bottom plates (Costar) at a concentration of 5,000 cells/well. 24 h later, the cells were treated for 2 h with a SMDC. SMDC starting dose was 1 uM and two-fold serial dilutions were done for a total of 11 points. After 2 h of treatment, cells were spun down, and the drug-containing media was removed, and fresh complete media was added and used to resuspend the cells, which were spun again. After removal of the media, the cells were resuspended in complete medium and incubated for an additional 70 h. Cell proliferation was assessed using the CellTiter Glo Assay according to the standard protocol (Promega). Luminescence was measured using a TECAN plate reader. Percent proliferation inhibition was calculated using the following formula: % inhibition=(Luminescence Control−Luminescence Treatment)/Luminescence Control*100. IC50 curves were generated using the nonlinear regression analysis (four-parameter) with GraphPad Prism 9.

T1 sequence (P30874 whole entry): as above

| SMILES | EC50 [1] [nM] | EC50 [2] [nM] | EC50 [3] [nM] |
| --- | --- | --- | --- |
| CCC(C)C(C(CC(=O)N1CCCC1C(OC)C(C)C(=O)NC(C)C(O)c1ccccc1)OC)N(C)C(=O)C(NC(=O)C(C(C)C)N(C)C(=O)OCc1ccc(NC(=O)CNC(=O)[C@H](Cc2ccccc2)NC(=O)CNC(=O)CNC(=O)CCOCCC(=O)NCCNc2ncc(-c3cc(C)cc(F)c3)c(N3CCC(N)CC3)c2-c2nc3ccc(Cl)cc3[nH]2)cc1)C(C)C (stereo in doubt) [Compound 35] | 0.58 | 6.1 | 17.4 |
| CCC(C)C(C(CC(=O)N1CCCC1C(OC)C(C)C(=O)NC(C)C(O)c1ccccc1)OC)N(C)C(=O)C(NC(=O)C(C(C)C)N(C)C(=O)OCc1ccc(NC(=O)[C@H](CCCNC(N)=O)NC(=O)[C@@H](NC(=O)CCOCCOCCOCCOCCOCCOCCC(=O)NCCNc2ncc(-c3cc(C)cc(F)c3)c(N3CCC(N)CC3)c2-c2nc3ccc(Cl)cc3[nH]2)C(C)C)cc1)C(C)C (stereo in doubt) [Compound 40] | 0.36 | 26.4 | 46.5 |
| CCC(C)C(C(CC(=O)N1CCCC1C(OC)C(C)C(=O)NC(C)C(O)c1ccccc1)OC)N(C)C(=O)C(NC(=O)C(C(C)C)N(C)C(=O)OCc1ccc(NC(=O)[C@H](CCCNC(N)=O)NC(=O)[C@@H](NC(=O)CCOCCOCCOCCOCCC(=O)NCCNc2ncc(-c3cc(C)cc(F)c3)c(N3CCC(NC)CC3)c2-c2nc3ccc(Cl)cc3[nH]2)C(C)C)cc1)C(C)C (stereo in doubt) [Compound 41] | 0.48 | 24.6 | 27.8 |
| COc1cc2cc(c1Cl)N(C)C(=O)CC(OC(=O)[C@@H](C)N(C)C(=O)CCSC1CC(=O)N(CC3CCC(C(=O)NCCNc4ncc(-c5cc(C)cc(F)c5)c(N5CCC(N)CC5)c4-c4nc5ccc(Cl)cc5[nH]4)CC3)C1=O)[C@]1(C)OC1[C@@H](C)C1C[C@@](O)(NC(=O)O1)[C@H](OC)/C=C/C=C(\C)C2 (stereo partly drawn) [Compound 6] | 0.22 | 5.3 | 11.7 |
| COc1cc2cc(c1Cl)N(C)C(=O)CC(OC(=O)[C@@H](C)N(C)C(=O)CCS[C@H]1CC(=O)N(CC3CCC(C(=O)NCCCC[C@H](N)C(=O)NCCNc4ncc(-c5cc(C)cc(F)c5)c(N5CCC(N)CC5)c4-c4nc5ccc(Cl)cc5[nH]4)CC3)C1=O)[C@]1(C)OC1[C@@H](C)C1C[C@@](O)(NC(=O)O1)[C@H](OC)/C=C/C=C(\C)C2 (stereo partly drawn) [Compound 7] | 0.15 | 21 | 355 |
| COc1cc2cc(c1Cl)N(C)C(=O)CC(OC(=O)[C@@H](C)N(C)C(=O)CCS[C@@H]1CC(=O)N(CC3CCC(C(=O)NCCCC[C@H](N)C(=O)NCCNc4ncc(-c5cc(C)cc(F)c5)c(N5CCC(N)CC5)c4-c4nc5ccc(Cl)cc5[nH]4)CC3)C1=O)[C@]1(C)OC1[C@@H](C)C1C[C@@](O)(NC(=O)O1)[C@H](OC)/C=C/C=C(\C)C2 (stereo partly drawn) [Compound 8] | 0.12 | 23.6 | 447 |
| COc1cc2cc(c1Cl)N(C)C(=O)CC(OC(=O)[C@@H](C)N(C)C(=O)CCSSCCNC(=O)CN1CCN(CC(=O)O)CCN(CC(=O)NCCNc3ncc(-c4cc(C)cc(F)c4)c(N4CCC(N)CC4)c3-c3nc4ccc(Cl)cc4[nH]3)CC1)[C@]1(C)OC1[C@@H](C)C1C[C@@](O)(NC(=O)O1)[C@H](OC)/C=C/C=C(\C)C2 (stereo partly drawn) [Compound 9] | 0.13 | 7.7 | 379 |
